Reference: PubChem BioAssay AID179 (DTP/NCI, 2004)
pEC50, pIC50: −log10 of the molar value. Values joined by “and” are separate entries in the source; they are usually repeats but may differ in a detail not shown here. Equal entries are not always repeated. Active and inactive are the calls of the source.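 Rule for the calls: active = compounds giving half or more protection of infected cells from virus-caused growth loss, again on retest; inactive = the rest.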

Test system: CEM cells HIV-1 protection, formazan growth assay
Experiment: NCI AIDS Antiviral Assay
Conditions: for pIC50: measured here: growth of uninfected CEM cells
Method in brief: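 Steps: treat uninfected and HIV-1-infected human CEM cells at five drug levels; quantify growth by soluble formazan; retest any compound reaching 50% protection; classify actives from the retest.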

SMILES	pEC50	pIC50	outcome
C[n+]1c(-c2ccc(/C=N/NC(=O)c3cc(O)c(C(=O)N/N=C/c4ccc(-c5cn6ccccc6[n+]5C)cc4)cc3O)cc2)cn2ccccc21	< 5.20	< 5.20	–
Cc1cc(=O)n2nc(SCc3ccccc3)sc2n1	< 3.70	4.09	–
COc1ccc(/C=c2\sc3nnc(CCC(=O)Nc4cccc(C(F)(F)F)c4)n3c2=O)cc1	< 5.12	< 5.12	–
CCOC(=O)/C(F)=C/c1ccc(F)cc1	< 3.91	< 3.91	–
CC(=O)Nc1ccc(C2C(C(=O)Nc3ccccc3C)=C(C)NC(C)=C2C(=O)Nc2ccccc2C)cc1	< 4.15	< 4.15	–
COC(=O)C(Cc1ccccc1)NP(=O)(O)OCC1OC(n2cc(F)c(=O)[nH]c2=O)CC1O (centres undefined)	< 3.70	4.23	–
Cc1ccc(CCC(=O)C(=O)O)s1	< 3.32	< 3.32	–
COc1ccc2cc3[n+](cc2c1OC)CCc1cc2c(cc1-3)OCO2	< 3.47	5.17 and 5.48	–
CN1C(=O)[C@@H]2N(N(C)C1=O)[C@@]1(Br)C(=O)NC(=O)[C@@]21Br	3.99	3.83	–
c1ccc2c(c1)nc1nc3c(cn12)CCCCC3	–	–	inactive
CCOC(=O)NC(=O)c1cn(C(CC)COC(=O)NCCCCCCNC(=O)OCC(CC)n2cc(C(=O)NC(=O)OCC)c(=O)[nH]c2=O)c(=O)[nH]c1=O (centres undefined)	–	–	inactive
C[S+](C)CCOC(=O)C(=[N+]=[N-])c1ccc([N+](=O)[O-])cc1	–	–	inactive
COC(=O)c1c(COC(=O)NC(C)C)c2n(c1C)CS(=O)(=O)C2	< 3.70	< 3.70	–
CC(=O)CCCCC(=O)Nc1ccc(CC(NC(=O)OC(C)(C)C)C(=O)NCC(=O)OCc2ccccc2)cc1 (centres undefined)	< 3.70	4.89	–
O=C1C2CCN(CC2)C1Cn1cnc2c(Cl)ncnc21 (centres undefined)	–	–	inactive
CN(C)c1ccc(C2CC(c3ccc4ccccc4c3O)=NN2c2ccc([N+](=O)[O-])cc2[N+](=O)[O-])cc1 (centres undefined)	< 3.82	4.48	–
CSC(SC)=C(C#N)C(=O)Nc1ccc(C)cc1	< 3.70	5.44	–
COC(=O)CCNC(=O)OCc1ccccc1	< 3.70	< 3.70	–
COc1ccc(Nc2cc(N)nc(N)n2)c(=S)[nH]1	< 3.17	4.24	–
C=Cc1nc2nnc(CCCCCCCCc3nnc4nc(C=C)[nH]n34)n2[nH]1	< 3.70	4.39	–
COc1cc(C2C(=O)C(Cl)N2Nc2nc(C)cc(=O)[nH]2)cc(OC)c1OC (centres undefined)	< 4.18	5.01	–
COc1ccc(N[C@H](CS(=O)c2ccc(C)cc2)C(F)(F)F)cc1 (some centres undefined)	< 3.70	< 3.70	–

SMILES	pEC50	pIC50	outcome
Nc1ncnc2c1ncn2C1CCC(CP(=O)(O)O)C1 (centres undefined)	< 3.70	< 3.70	–
C=CCC(C)C12CCNC(Cc3ccc(O)cc31)C2C (centres undefined)	< 3.70	< 3.70	–
CSc1cc(-c2ccccn2)nc(-c2ccccn2)c1.CSc1cc(-c2ccccn2)nc(-c2ccccn2)c1.[Co+2].[O-][Cl+3]([O-])([O-])[O-]	< 3.70	6.92	–
O=C1NC(N2CCCC(CO)C2)=N/C1=C\c1ccccc1 (centres undefined)	< 3.70	< 3.70	–
C=[N+](CNC(=O)CNC(=O)C(Cc1ccc([N+](=O)[O-])cc1)NC(=O)OC(C)(C)C)C(=O)CNC(=O)C(Cc1ccc([N+](=O)[O-])cc1)NC(=O)OC(C)(C)C (centres undefined)	< 3.70	4.05	–
O=C1/C(=C/c2ccc([N+](=O)[O-])cc2)CCc2ccccc21	< 5.14	< 5.14	–
O=CC(=O)c1ccccc1	–	–	inactive
CSc1nnc2sc3cc(C)ccc3n12	< 3.70	3.91	–
N#CC1CC(c2cccs2)Nc2ccccc2N1 (centres undefined)	< 3.85	4.33	–
CCOC(=O)c1cc(C)nc2c1c(=O)n(-c1ccccc1)c(=O)n2CCCCN1CCN(c2ccccc2)CC1	< 3.70	< 3.70	–
C[C@H](OCc1ccccc1)C(=O)N1CCS(=O)(=O)N2CCC[C@@H]2C1=O	< 3.31	< 3.31	–
O=c1cc(-c2ccccc2)oc2cc(OCCSCCCCCCCCCCSCCOc3ccc4c(=O)cc(-c5ccccc5)oc4c3)ccc12	< 5.71	< 5.71	–
CN(Cc1ccccc1)c1nc(=[N+](C)C)ss1	–	–	inactive
CC1=CC(=O)C(=O)C2=C1OC1(C2)C(C)CCC2C3(C)CCC(O)C(C)(C)C3CCC21C (centres undefined)	< 4.00	4.32	–
CCOC(=O)CC(C(=O)OCC)S(=O)(=O)O (centres undefined)	< 3.70	< 3.70	–
O=[N+]([O-])c1ccc(/C=C/c2ccc(/C=C/c3ccc([N+](=O)[O-])cc3[N+](=O)[O-])cc2)c([N+](=O)[O-])c1	–	–	inactive
C[Si](C)(C)/C=C/CCNC(C#N)c1ccccc1 (centres undefined)	< 4.69	< 4.69	–
CC(=O)Oc1cc(O)c2c(=O)c(OC(C)=O)c(-c3ccc(OC(C)=O)c(OC(C)=O)c3)oc2c1	< 3.70	4.47	–
C#CCN(N=O)C(=O)ON1C(=O)CCC1=O	< 2.95	3.27	–
Cc1ccc(S(=O)(=O)NCCN(CCNS(=O)(=O)c2ccc(C)cc2)S(=O)(=O)c2ccc(C)cc2)cc1	< 3.70	< 3.70	–
CC(=O)c1ccc2c(c1)NC(=O)CC(C)N2 (centres undefined)	< 3.70	< 3.70	–
CC1(CO)CCCC/C1=N\Nc1cc([N+](=O)[O-])cc([N+](=O)[O-])c1 (centres undefined)	< 3.30	4.72	–

SMILES	pEC50	pIC50	outcome
COc1ccc(CN2C(=O)C(=O)N(C)C2=O)c2ccccc12	< 3.70	4.59	–
CO/N=C(\C(=O)[N-][n+]1cnn(CC(=O)O)c1)c1csc(N)n1	< 3.70	< 3.70	–
O=C1CC(c2c[nH]c3ccccc23)C(=O)N1c1ccccc1 (centres undefined)	–	–	inactive
COc1ccc2c(c1)CC1c3c(ccc(OC)c3O)CC2N1C (centres undefined)	< 4.36	4.69	–
O=C1CCCC/C1=C1/SC(=Nc2ccccc2)C(=Nc2ccccc2)N1c1ccccc1	< 3.70	< 3.70	–
COP(=O)(OC)c1nc(P(=O)(OC)OC)nc(P(=O)(OC)OC)n1	< 3.96	4.05	–
COc1cc2oc(-c3ccc4c(c3)OCO4)c(OC)c(=O)c2c(O)c1OC	< 4.00	< 4.00	–
O=C(/C=C/c1cccc([N+](=O)[O-])c1)c1ccccc1	< 4.69	4.94	–
CC(=O)NCCSS(=O)(=O)CCCCS(=O)(=O)SCCNC(C)=O	3.93	3.67	–
CC1=C(C)C(=O)C2=C(OCCCO2)C1=O	< 2.92	5.47	–
CCCCCC1C2C(=O)NC(=O)C1C(=O)NC2=O (centres undefined)	< 3.00	< 3.00	–
N#Cc1c2c(c(N=P(c3ccccc3)(c3ccccc3)c3ccccc3)n3c1nc1ccccc13)CCCC2	< 5.98	< 5.98	–
N#C/C(=C\c1ccccc1)c1cccc(Br)c1	< 3.70	< 3.70	–
CSC1=C(c2ccc(Cl)cc2)SC(N2CCCCC2)N1c1ccc([N+](=O)[O-])cc1 (centres undefined)	< 3.70	4.01	–
O=C(O)c1cc(Cc2cc(C(c3ccc(O)c(C(=O)O)c3)c3ccc(O)c(C(=O)O)c3)cc(C(=O)O)c2O)ccc1O	4.02	3.71	–
O=C(/C=C/c1ccccc1)NC(=S)NCc1ccco1	< 3.70	< 3.70	–
[O-]/[N+](=N/c1ncc(-c2ccccc2)cn1)c1ncc(-c2ccccc2)cn1	< 3.70	4.50	–
COc1ccc2nc3ccccc3c(NCCCCN(C)CCCl)c2c1	< 5.70	6.82	–
CN(C)c1ccc(-n2cccc2)cc1	< 3.70	< 3.70	–
C1CCN(C2OC3C(COC3N3CCCCC3)OC2OC2CCO[C@@H]2N2CCCCC2)CC1 (some centres undefined)	< 4.41	5.47	–
CCOC(=O)CN1C(=O)NC(C)(c2ccccc2)C1=O (centres undefined)	< 3.70	< 3.70	–
Cc1ccc2[nH]c(=O)c(-c3cnc(=O)[nH]n3)c(O)c2c1	5.52	4.82	–

SMILES	pEC50	pIC50	outcome
CN1N=CSC12C(=O)N(c1ccc(Cl)cc1)C(=O)N2c1ccc(Cl)cc1 (centres undefined)	–	–	inactive
CCN(CC)CCCC(C)Nc1ccnc2cc(Cl)ccc12 (centres undefined)	–	–	inactive
Nc1cc(-c2ccccc2)nn1-c1nsc2ccccc12	< 4.75	< 4.75	–
COC(=O)C1(Cc2cccc(C)c2)Cc2c(C)cccc2C1=O (centres undefined)	< 3.70	4.49	–
O=C(CCSCCC(=O)NNc1ccccc1)NNc1ccccc1	< 4.70	< 4.70	–
CC1C(=O)C2CC3(C)CO[C@@]2(C3O)[C@@]2(C)CC[C@@H]12 (some centres undefined)	–	–	inactive
CCOC(C(=O)N(C)CCN(C)CCc1ccccc1)(c1ccccc1)c1ccccc1	< 3.70	4.43	–
CC(C)=CCC[C@@H](C)C1=C(O)C(N)=C(C)C(=O)C1=O	< 3.70	4.92	–
Cc1nc2ccccc2c(=O)n1/N=C(\N=Nc1cc(Cl)ccc1Cl)c1ccc(N(C)C)cc1	–	–	inactive
O=c1oc2ccccc2c2nc3c([N+](=O)[O-])cccc3cc12	< 3.70	5.09	–
CCc1n[nH]c(=O)n1-c1ccncc1	< 3.70	< 3.70	–
N#CC1(O)CCCCCCCCCCC1	< 3.70	< 3.70	–
COC(C/C(=C/CO[Si](C(C)C)(C(C)C)C(C)C)C(=O)Nc1ccccc1I)OC	< 3.70	4.39	–
CC1=C(/C=C/C(C)=C/C=C/C(C)=C/C=C/C=C(C)/C=C/C=C(C)/C=C/C=C(C)/C=C/C=C(\C)C(=O)O)C(C)(C)CCC1	< 5.32	< 5.32	–
OCC1=CCC2c3[nH]c4ccccc4c3CCN2C1 (centres undefined)	< 3.43	< 3.43	–
CCN=C(NC(=O)c1ccccc1Cl)SCSC(=NCC)NC(=O)c1ccccc1Cl	< 3.70	< 3.70	–
O=C1c2c(O)ccc(O)c2C(=O)c2c(NCCCCCO)ccc(NCCCCCO)c21	–	–	inactive
CCOC(=O)C1C(C(C)C)C2(C#N)C(=N)OC1(C)C2(C#N)C#N (centres undefined)	< 3.70	4.31	–
Cc1occc1C(=S)Nc1ccc(Cl)c(C(=O)OCC(C)C)c1	7.91	4.73	–
Cc1cc(NS(=O)(=O)c2ccc(Nc3c4ccccc4nc4c(C(=O)Nc5ccccc5)cccc34)cc2)no1	< 3.70	4.98	–
